The test system of series [1] is HIV (HTLV-III B strain). The series is described as follows: HIV replication inhibition assay (MTT, MT-4 cells). It is filed as cell-based. The settings on record: Human immunodeficiency virus 1, MT4, 96 h, four days culture, concentration at which cell cytotoxicity by virus is inhibited 50%. As to the method:
HIV (HTLV-III B strain) persistent infected human T cell strain Molt-4 clone 8 was cultured in 10% Fetal Bovine Serum-containing RPMI-1640 medium and the supernatant was filtrated, then the virus titer was measured and the solution was stored at −80° C. Each anti-human immunodeficiency virus active substance was diluted with the above cultured medium to the designated concentration, which was dispensed into 96 well micro plate by 50 μL. Next, a MT-4 cell suspended liquid was dispensed by 100 μL (2.5×10^4 cells), then the above HIV-containing supernatant diluted with the above cultured medium was added thereto by 50 μL (60 pfu (plaque forming unit)).
The obtained mixture was cultured at 37° C. in CO2 incubator for four days, then 3-(4,5-dimehylthiazole-2-yl)-2,5-diphenyltetrazolynium bromide (MTT) 5 mg/mL in PBS was added to each well by 30 μL, followed by 1 hr-cultivation. In this step, as formazan was precipitated by reduction of MTT in living cells, the cell supernatant was removed from all well by 150 μL, then a 150 μL of solution (10% Triton X-100 and […]) was added thereto, followed by shaking with a plate mixer, to elute formazan. The formazan was measured with a microreader at OD: 560 nm and 690 nm (wavelength) and the result was compared with the reference. EC50 means the compound concentration at which cell cytotoxicity by virus is inhibited 50%.

The subject of series [2] is Salmonella typhimurium TA98 strain, TA100 strain. The format is cell-based. As to conditions: Salmonella typhimurium TA98, TA100, non-metabolism and metabolism activating condition. As for the experimental part:
The mutagenicity of the compound of the present invention was assayed.
20 μL of freezing-stored rat typhoid bacillus (Salmonella typhimurium TA98 strain, TA100 strain) was inoculated on 10 mL of a liquid nutrient medium (2.5% Oxoid nutrient broth No. 2), and this was cultured before shaking at 37° C. for 10 hours. 9 mL of a bacterial solution of the TA98 strain was centrifuged (2000×g, 10 minutes) to remove a culturing solution. The bacteria was suspended in F buffer (K2HPO4: 3.5 g/L, KH2PO4: 1 g/L, (NH4)2SO4: 1 g/L, trisodium citrate dehydrate: 0.25 g/L, MgSO4.7H2O: 0.1 g/L), and the suspension was added to 110 mL of an Exposure medium (Micro F buffer containing Biotin: 8 μg/mL, histidine: 0.2 μg/mL, glucose: 8 mg/mL). The TA100 strain was added to 120 mL of the Exposure medium per 3.16 mL of the bacterial solution to prepare a test bacterial solution. […] of a test substance DMSO solution (several stage dilution from maximum dose 50 mg/mL at 2- to 3-fold ratio), DMSO as a negative control, 50 μg/mL of 4-nitroquinoline-1-oxide DMSO solution for the TA98 strain, 0.25 μg/mL of 2-(2-furyl)-3-(5-nitro-2-furyl)acrylamide DMSO solution for the TA100 strain each under the non-metabolism activating condition, 40 μg/mL of 2-aminoanthracene DMSO solution for the TA98 strain, 20 μg/mL of 2-aminoanthracene DMSO solution for the TA100 strain each under the metabolism activating condition all as a positive control, and 588 μL of the test bacterial solution (a mixed solution of 498 μL of the test bacterial solution and 90 μL of S9 mix under the metabolism activating condition) were mixed, and this was shaking-cultured at 37° C. for 90 minutes. […] Since a well containing a bacterium which has obtained the proliferation ability by mutation of an amino acid (histidine) synthesizing enzyme gene turns from purple to yellow due to a pH change, the bacterium proliferation well which has turned to yellow in 48 wells per dose is counted, and was assessed by comparing with a negative control group. […]

SMILES strings stand for the structures.

EC50 and mutagenicity data for 2 molecules are collected here from patent US9199959B2, “HIV replication inhibitor” (Shionogi & Co., Ltd., priority 2011, dated 2015).

As a reminder, the EC50 is the midpoint of the concentration-response curve. Read a low EC50 as greater potency.

With `CCNC(=O)Nc1c(C)c(C(OC(C)(C)C)C(=O)O)c(-c2ccc(C)c(C)c2)c(C)c1-c1ccc(C)c(C)c1` (stereo not shown) [Compound I-11], the half-maximal effective concentration (EC50) in series [1] was determined as 21 nM. Further, the mutagenicity entry in series [2] was “negative”.
The matching figures for `Cc1ccc(-c2c(C)c(-c3ccc(C)c(C)c3)c(C(OC(C)(C)C)C(=O)O)c(C)c2NS(C)(=O)=O)cc1C` (stereo not shown) [Compound I-12]: 6.4 nM and “negative”.
